Experiments:
[1] = Inhibition of S-adenosyl homocysteine hydrolase (unknown origin) relative to control; conditions: Homo sapiens; concentration not given here
[2] = target: Delta-type opioid receptor (Homo sapiens, UniProt P41143); assay: Binding affinity to DOR (unknown origin)
[3] = target: T1, Kappa-type opioid receptor (Homo sapiens, UniProt P41145); assay: Binding affinity to KOR (unknown origin)
Adenosine receptor A3 [4] = target: T2, Adenosine receptor A3 (Homo sapiens, UniProt P0DMS8); assay: Binding affinity to human adenosine A3 receptor assessed as inhibition constant
T2 sequence (P0DMS8 whole entry): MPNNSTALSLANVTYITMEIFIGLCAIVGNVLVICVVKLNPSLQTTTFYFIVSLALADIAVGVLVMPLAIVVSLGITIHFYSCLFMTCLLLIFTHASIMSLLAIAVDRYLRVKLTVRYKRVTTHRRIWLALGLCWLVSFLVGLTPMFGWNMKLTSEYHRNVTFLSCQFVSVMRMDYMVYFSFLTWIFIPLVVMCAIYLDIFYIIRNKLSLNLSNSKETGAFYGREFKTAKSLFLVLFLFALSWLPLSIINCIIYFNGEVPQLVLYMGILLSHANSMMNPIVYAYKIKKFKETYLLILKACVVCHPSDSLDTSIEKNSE

[5] = target: T1, Kappa-type opioid receptor; assay: Activation of human KOR assessed as beta-arrestin 2 recruitment at 30 uM by PathHunter enzyme fragment complementation assay relative to control
Mu-type opioid receptor = Mu-type opioid receptor (Homo sapiens, UniProt P35372); assay: Binding affinity to MOR (unknown origin)
Adenosine receptor A3 [6] = target: T3, Adenosine receptor A3 (Mus musculus, UniProt Q61618); assay: Binding affinity to mouse adenosine A3 receptor assessed as inhibition constant
T3 sequence (Q61618 whole entry): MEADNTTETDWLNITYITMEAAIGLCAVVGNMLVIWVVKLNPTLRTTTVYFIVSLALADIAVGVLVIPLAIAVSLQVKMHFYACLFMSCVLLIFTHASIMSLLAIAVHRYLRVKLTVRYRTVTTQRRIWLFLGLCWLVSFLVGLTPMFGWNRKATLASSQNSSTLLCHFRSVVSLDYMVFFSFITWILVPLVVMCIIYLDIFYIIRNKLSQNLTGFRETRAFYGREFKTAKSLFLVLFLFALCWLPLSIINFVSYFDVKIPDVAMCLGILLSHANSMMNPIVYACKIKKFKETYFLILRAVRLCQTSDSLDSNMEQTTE

P2Y purinoceptor 1 [7] = target: T4, P2Y purinoceptor 1 (Homo sapiens, UniProt P47900); assay: Agonist activity at human P2Y1R in human 1321N1 cells; assay type: cell-based
P2Y purinoceptor 1 [8] = target: T4, P2Y purinoceptor 1; assay: Agonist activity at human P2Y1R in human 1321N1 cells assessed as efficacy relative to control; assay type: cell-based; conditions: filed as agonist
Adenosine receptor A1 [9] = target: Adenosine receptor A1 (Homo sapiens, UniProt P30542); assay: Binding affinity to human adenosine A1 receptor assessed as inhibition constant
[10] = target: T5, Sodium/nucleoside cotransporter 1 (Homo sapiens, UniProt O00337); assay: Inhibition of CNT1 (unknown origin)
T5 sequence (O00337 whole entry): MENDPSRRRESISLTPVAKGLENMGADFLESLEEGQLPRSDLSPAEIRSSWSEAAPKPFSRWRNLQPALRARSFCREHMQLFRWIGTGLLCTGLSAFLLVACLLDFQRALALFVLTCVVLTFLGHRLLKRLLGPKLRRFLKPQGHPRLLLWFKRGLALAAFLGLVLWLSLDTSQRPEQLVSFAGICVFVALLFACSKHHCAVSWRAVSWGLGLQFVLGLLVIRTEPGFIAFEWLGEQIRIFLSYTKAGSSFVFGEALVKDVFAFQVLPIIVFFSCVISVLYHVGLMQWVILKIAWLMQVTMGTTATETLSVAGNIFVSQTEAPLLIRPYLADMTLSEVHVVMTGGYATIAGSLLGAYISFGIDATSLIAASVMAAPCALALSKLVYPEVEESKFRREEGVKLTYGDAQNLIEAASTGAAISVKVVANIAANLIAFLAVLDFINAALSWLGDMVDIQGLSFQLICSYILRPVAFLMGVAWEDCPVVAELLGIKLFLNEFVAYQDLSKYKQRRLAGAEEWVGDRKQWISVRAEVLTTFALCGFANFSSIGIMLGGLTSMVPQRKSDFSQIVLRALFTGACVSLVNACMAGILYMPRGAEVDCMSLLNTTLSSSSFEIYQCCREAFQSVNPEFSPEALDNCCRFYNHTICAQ

[11] = target: T6, Sodium/nucleoside cotransporter 2 (Homo sapiens, UniProt O43868); assay: Inhibition of CNT2 (unknown origin)
T6 sequence (O43868 whole entry): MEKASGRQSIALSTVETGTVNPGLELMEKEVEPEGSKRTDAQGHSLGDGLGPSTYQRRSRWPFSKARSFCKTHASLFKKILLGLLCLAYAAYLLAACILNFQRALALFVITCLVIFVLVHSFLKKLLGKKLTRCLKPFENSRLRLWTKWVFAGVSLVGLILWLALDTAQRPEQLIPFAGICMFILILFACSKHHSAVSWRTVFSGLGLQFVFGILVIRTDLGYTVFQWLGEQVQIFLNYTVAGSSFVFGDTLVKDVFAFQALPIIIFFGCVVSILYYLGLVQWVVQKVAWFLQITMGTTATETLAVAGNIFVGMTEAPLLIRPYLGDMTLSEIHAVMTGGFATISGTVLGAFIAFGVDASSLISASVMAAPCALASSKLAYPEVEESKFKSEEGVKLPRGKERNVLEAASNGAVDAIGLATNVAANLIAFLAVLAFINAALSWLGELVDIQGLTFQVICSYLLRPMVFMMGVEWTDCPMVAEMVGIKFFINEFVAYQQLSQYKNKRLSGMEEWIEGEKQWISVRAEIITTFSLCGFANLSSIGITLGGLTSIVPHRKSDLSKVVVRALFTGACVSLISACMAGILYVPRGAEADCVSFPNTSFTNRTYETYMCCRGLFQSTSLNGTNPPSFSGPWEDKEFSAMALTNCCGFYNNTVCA

Adenosine receptor A2a = Adenosine receptor A2a (Homo sapiens, UniProt P29274); assay: Binding affinity to human adenosine A2A receptor assessed as inhibition constant
Adenosine receptor A2b = Adenosine receptor A2b (Homo sapiens, UniProt P29275); assay: Binding affinity to human adenosine A2B receptor assessed as inhibition constant
Adenosine receptor A1 [12] = target: Adenosine receptor A1 (Rattus norvegicus, UniProt P25099); assay: Binding affinity to rat adenosine A1 receptor assessed as inhibition constant
[13] = target: T6, Sodium/nucleoside cotransporter 2; assay: Inhibition of human CNT2
[14] = target: T7, Equilibrative nucleoside transporter 1 (Homo sapiens, UniProt Q99808); assay: Inhibition of human recombinant ENT1 assessed as inhibition of [3H] uridine transport
T7 sequence (Q99808 whole entry): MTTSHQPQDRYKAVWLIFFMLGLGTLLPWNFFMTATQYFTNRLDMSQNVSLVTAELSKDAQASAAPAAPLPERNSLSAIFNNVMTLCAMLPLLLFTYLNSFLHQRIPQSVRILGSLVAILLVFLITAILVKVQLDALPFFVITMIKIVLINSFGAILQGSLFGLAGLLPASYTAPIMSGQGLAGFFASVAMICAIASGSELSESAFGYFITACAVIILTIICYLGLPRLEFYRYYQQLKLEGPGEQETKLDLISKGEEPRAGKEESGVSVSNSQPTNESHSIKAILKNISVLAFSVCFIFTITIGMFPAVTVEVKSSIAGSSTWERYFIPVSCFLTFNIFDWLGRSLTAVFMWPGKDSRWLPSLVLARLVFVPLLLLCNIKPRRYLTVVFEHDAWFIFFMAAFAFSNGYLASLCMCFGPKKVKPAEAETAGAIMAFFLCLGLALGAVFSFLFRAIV

[15] = target: T5, Sodium/nucleoside cotransporter 1; assay: Inhibition of human CNT1

T4 sequence (P47900 whole entry): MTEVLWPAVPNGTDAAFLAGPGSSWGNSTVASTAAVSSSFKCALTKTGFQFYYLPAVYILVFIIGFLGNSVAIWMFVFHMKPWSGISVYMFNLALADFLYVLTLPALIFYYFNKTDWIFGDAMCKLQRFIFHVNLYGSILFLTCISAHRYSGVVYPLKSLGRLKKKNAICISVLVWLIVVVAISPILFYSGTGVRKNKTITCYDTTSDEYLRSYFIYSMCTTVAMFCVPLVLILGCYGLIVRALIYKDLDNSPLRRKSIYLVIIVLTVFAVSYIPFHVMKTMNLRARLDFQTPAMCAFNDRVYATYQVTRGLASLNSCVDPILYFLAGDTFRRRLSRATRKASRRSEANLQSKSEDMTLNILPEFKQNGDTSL
Chain of Adenosine receptor A1 (Homo sapiens, UniProt P30542) (P30542 whole entry): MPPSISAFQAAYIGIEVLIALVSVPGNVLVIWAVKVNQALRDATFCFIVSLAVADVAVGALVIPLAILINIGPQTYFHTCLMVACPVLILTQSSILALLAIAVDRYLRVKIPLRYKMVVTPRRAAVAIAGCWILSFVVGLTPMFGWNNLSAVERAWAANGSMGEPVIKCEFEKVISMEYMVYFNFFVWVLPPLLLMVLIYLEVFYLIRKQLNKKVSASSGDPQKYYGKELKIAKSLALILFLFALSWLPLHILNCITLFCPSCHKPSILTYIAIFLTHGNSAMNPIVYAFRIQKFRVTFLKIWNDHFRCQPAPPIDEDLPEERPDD
T1 sequence (P41145 whole entry): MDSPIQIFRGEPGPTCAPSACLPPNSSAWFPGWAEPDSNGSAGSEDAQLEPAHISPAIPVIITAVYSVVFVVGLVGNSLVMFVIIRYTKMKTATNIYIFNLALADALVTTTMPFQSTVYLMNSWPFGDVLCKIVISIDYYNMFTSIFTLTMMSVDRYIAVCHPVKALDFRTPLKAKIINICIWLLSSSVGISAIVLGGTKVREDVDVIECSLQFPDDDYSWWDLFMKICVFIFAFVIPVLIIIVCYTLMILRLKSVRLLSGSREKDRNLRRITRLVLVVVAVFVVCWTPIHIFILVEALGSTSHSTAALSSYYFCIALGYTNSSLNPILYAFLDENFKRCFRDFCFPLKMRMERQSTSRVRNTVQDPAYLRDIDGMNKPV
Chain of Delta-type opioid receptor (P41143 whole entry): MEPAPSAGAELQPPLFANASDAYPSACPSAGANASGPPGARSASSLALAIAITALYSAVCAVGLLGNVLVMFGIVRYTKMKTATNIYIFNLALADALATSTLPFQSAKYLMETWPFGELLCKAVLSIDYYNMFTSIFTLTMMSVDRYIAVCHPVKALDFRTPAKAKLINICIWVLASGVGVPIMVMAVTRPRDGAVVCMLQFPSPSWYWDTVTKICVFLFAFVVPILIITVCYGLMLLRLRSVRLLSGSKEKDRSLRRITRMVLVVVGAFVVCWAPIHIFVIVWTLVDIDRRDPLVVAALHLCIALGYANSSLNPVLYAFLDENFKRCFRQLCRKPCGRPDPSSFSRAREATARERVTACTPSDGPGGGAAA
Chain of Adenosine receptor A1 (Rattus norvegicus, UniProt P25099) (P25099 whole entry): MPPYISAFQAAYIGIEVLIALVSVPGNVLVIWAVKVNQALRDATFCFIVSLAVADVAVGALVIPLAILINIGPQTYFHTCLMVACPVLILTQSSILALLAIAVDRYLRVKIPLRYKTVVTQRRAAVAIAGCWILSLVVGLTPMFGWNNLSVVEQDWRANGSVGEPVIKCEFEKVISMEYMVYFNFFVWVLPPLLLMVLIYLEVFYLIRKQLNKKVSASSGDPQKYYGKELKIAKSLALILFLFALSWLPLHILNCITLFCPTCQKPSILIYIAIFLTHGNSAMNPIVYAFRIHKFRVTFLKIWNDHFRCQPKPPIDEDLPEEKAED
Chain of Adenosine receptor A2b (P29275 whole entry): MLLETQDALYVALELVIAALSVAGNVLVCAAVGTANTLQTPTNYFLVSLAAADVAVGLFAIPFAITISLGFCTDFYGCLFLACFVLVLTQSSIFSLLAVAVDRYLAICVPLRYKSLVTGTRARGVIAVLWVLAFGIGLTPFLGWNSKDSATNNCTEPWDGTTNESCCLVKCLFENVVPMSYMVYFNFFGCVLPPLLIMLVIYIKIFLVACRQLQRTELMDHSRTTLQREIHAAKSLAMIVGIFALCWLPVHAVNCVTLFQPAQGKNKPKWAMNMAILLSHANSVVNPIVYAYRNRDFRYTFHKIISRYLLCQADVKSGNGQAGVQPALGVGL
Chain of Adenosine receptor A2a (P29274 whole entry): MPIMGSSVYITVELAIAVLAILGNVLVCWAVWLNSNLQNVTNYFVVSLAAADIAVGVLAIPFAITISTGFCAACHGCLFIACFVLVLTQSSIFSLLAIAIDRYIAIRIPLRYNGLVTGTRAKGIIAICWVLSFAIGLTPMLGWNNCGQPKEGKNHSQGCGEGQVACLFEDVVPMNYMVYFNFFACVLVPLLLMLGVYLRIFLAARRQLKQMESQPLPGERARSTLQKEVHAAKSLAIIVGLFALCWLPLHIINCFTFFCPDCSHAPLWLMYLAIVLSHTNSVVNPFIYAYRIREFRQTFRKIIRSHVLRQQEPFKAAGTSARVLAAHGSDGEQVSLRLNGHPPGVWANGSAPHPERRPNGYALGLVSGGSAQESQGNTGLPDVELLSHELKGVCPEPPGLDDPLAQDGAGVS
Chain of Mu-type opioid receptor (P35372 whole entry): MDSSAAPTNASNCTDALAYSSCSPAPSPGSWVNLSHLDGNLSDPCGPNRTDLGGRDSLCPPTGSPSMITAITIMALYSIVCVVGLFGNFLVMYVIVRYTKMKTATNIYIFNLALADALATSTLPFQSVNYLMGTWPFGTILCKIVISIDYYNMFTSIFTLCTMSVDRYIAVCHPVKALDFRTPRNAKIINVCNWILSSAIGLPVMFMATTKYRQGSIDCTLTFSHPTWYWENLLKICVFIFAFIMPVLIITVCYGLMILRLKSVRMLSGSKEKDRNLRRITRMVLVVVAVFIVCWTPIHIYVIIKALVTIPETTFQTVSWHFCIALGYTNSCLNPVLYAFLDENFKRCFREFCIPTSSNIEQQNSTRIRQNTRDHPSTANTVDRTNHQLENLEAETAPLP

Question: Which inhibition [1] does the source give for `Nc1ncnc2c1ncn2[C@@H]1C=C(CO)[C@@H](O)[C@H]1O` here?
Answer: 30%

Question: For `CCOC(=O)[C@]12C[C@@H]1[C@@H](n1ccc3c(NC)nc(C#Cc4ccc(Cl)s4)nc31)[C@H](O)[C@@H]2O`, which Ki [2] is on record?
Answer: 0.786 µM

Question: And the Ki [3]?
Answer: 0.042 µM

Question: And the Ki (Adenosine receptor A3 [4])?
Answer: 0.448 µM

Question: And the Activity [5]?
Answer: 0%

Question: And the Ki (Mu-type opioid receptor)?
Answer: 0.637 µM

Question: What about the Ki (Adenosine receptor A3 [6]) of the same molecule?
Answer: > 10 µM

Question: What does the source list for `Nc1ncnc2c1ncn2[C@H]1C[C@H](OP(=O)(O)O)[C@@]2(COP(=O)(O)O)C[C@H]12`?
Answer: EC50 (P2Y purinoceptor 1 [7]): 0.155 µM; Efficacy (P2Y purinoceptor 1 [8]): 92%

Question: Which Ki (Adenosine receptor A1 [9]) does the source give for `CNC(=O)[C@@]12C[C@@H]1[C@@H](n1cnc3c(NC)nc(C#Cc4ccc(F)s4)nc31)[C@H](O)[C@@H]2O` here?
Answer: > 10 µM

Question: Which EC50 (P2Y purinoceptor 1 [7]) does the source give for `Nc1ncnc2c1ncn2[C@H]1C[C@H](OP(=O)(O)O)[C@@H](COP(=O)(O)O)O1` here?
Answer: 1.28 µM

Question: What about the Efficacy (P2Y purinoceptor 1 [8]) of the same molecule?
Answer: 77%

Question: With `CNC(=O)[C@]12C[C@@H]1[C@@H](n1cnc3c(NC)nc(C#Cc4ccc(Cl)s4)cc31)[C@H](O)[C@@H]2O` as the molecule, how does the Ki (Adenosine receptor A3 [6]) read?
Answer: > 10 µM

Question: With `O=[N+]([O-])c1ccc(CSc2ncnc3c2ncn3[C@@H]2O[C@H](CO)[C@@H](O)[C@H]2O)cc1` [NITROBENZYLMERCAPTOPURINE RIBONUCLEOSIDE] as the molecule, how does the IC50 [10] read?
Answer: > 10 µM

Question: What about the IC50 [11] of the same molecule?
Answer: > 10 µM

Question: Which inhibition [1] does the source give for `Nc1ncnc2c1ncn2[C@@H]1C[C@H](CO)[C@@H](O)[C@H]1O` here?
Answer: 30%

Question: Which Ki (Adenosine receptor A2a) does the source give for `Nc1ncnc2c1ncn2[C@H]1[C@H](O)[C@H](O)[C@@]2(CO)C[C@H]12` here?
Answer: 22.5 µM

Question: What about the Ki (Adenosine receptor A2b) of the same molecule?
Answer: > 50 µM

Question: And the Ki (Adenosine receptor A3 [4])?
Answer: 0.404 µM

Question: What about the Ki (Adenosine receptor A1 [12]) of the same molecule?
Answer: 1.68 µM

Question: With `Nc1ncnc2c1ncn2[C@]12C[C@H](OP(=O)(O)O)[C@@H](COP(=O)(O)O)[C@@H]1C2` as the molecule, how does the EC50 (P2Y purinoceptor 1 [7]) read?
Answer: 18.9 µM

Question: And the Efficacy (P2Y purinoceptor 1 [8])?
Answer: 50%

Question: Which Ki (Adenosine receptor A1 [9]) does the source give for `CCCNc1nc(C#Cc2ccc(Cl)s2)nc2c1ncn2[C@H]1[C@H](O)[C@H](O)[C@]2(C(=O)NC)C[C@H]12` here?
Answer: > 10 µM

Question: Which IC50 [13] does the source give for `Nc1ncnc2c1ncn2[C@H]1C[C@H](O)[C@@]2(CO)C[C@H]12` here?
Answer: 10 µM

Question: What about the IC50 [14] of the same molecule?
Answer: > 1000 µM

Question: And the IC50 [15]?
Answer: 49 µM

Question: For `Nc1ncnc2c1ncn2[C@]12C[C@H](O)[C@@H](CO)[C@@H]1C2`, which IC50 [13] is on record?
Answer: 145 µM

Question: And the IC50 [14]?
Answer: 626 µM

Question: And the IC50 [15]?
Answer: 57 µM
